Reference: patent US11883452B2, “Use of combination or composition of Radix et Rhizoma Notoginseng and aspirin” (CHINESE ACADEMY OF MEDICAL SCIENCES INSTITUTE OF MEDICINAL …, priority 2017, dated 2024)

Tests used:
Format in all cases: in vivo, SD rats
[1] = test system: platelets in platelet-rich plasma; assay: Maximum platelet aggregation rate (ADP-induced, platelet-rich plasma) in MCAO/R rats; settings: ADP 2 μmol/L
Method: 240 male SD rats were randomly divided into 8 groups, with 30 rats in each group, including a sham operated group, a middle cerebral artery occlusion (MCAO/R) model group, a group treated with the total saponins from Radix et Rhizoma Notoginseng at a dosage of 50 mg/kg, a group treated with aspirin at a dosage of 10 mg/kg, a group treated with aspirin at a dosage of 5 mg/kg, a group treated with the combination of the total saponins from Radix et Rhizoma Notoginseng at a dosage of 50 mg/kg and aspirin at a dosage of 5 mg/kg. The rats in the groups treated with the total saponins from Radix et Rhizoma Notoginseng and/or aspirin were administrated intragastrically with the total saponins from Radix et Rhizoma Notoginseng and/or aspirin for a week before MCAO, and the rats in the sham operated group and model group were administrated intragastrically with an equivalent volume of distilled water. […]
3.6 mL of blood was taken from the rats (n=10), anticoagulated with 3.8% sodium citrate (9:1), centrifuged at 150 g for 10 min to separate a platelet-rich plasma, and then centrifuged at 1500 g for 10 min to obtain a supernatant, which was platelet-poor plasma. […] Maximum aggregation within 5 minutes and maximum aggregation time of platelets in platelet-rich plasma were detected with a blood agglutination instrument.

[2] = test system: middle cerebral artery occlusion (MCAO/R) model rats; assay: Cerebral infarction volume by TTC staining in MCAO/R rats; settings: 24 hours of reperfusion
Method: 240 male SD rats were randomly divided into 8 groups, with 30 rats in each group, including a sham operated group, a middle cerebral artery occlusion (MCAO/R) model group, a group treated with the total saponins from Radix et Rhizoma Notoginseng at a dosage of 50 mg/kg, a group treated with aspirin at a dosage of 10 mg/kg, a group treated with aspirin at a dosage of 5 mg/kg, a group treated with the combination of the total saponins from Radix et Rhizoma Notoginseng at a dosage of 50 mg/kg and aspirin at a dosage of 5 mg/kg. The rats in the groups treated with the total saponins from Radix et Rhizoma Notoginseng and/or aspirin were administrated intragastrically with the total saponins from Radix et Rhizoma Notoginseng and/or aspirin for a week before MCAO, and the rats in the sham operated group and model group were administrated intragastrically with an equivalent volume of distilled water.
Middle cerebral artery occlusion (MCAO) model was established by thread embolization method. The surgical procedure was carried out under strictly aseptic conditions mainly according to the following steps: The rats were anesthetized by intraperitoneal injection of ketamine (80 mg/kg) and xylazine (10 mg/kg). […]
Cerebral infarction volumes were determined by triphenyl tetrazolium chloride (TTC) staining. […] Cerebral infarction volumes were evaluated and calculated using Image-Pro plus 5.1 software.

[3] = test system: middle cerebral artery occlusion (MCAO/R) model rats; assay: Serum inflammatory factors by ELISA in MCAO/R rats
rat duodenal microvilli = assay: Ultrastructure of duodenal villi with transmission electron microscope; settings: aspirin 10 mg/kg intragastrically daily for 4 weeks; rats
Method: (§1) 40 male SD rats were randomly divided into 4 groups, with 10 rats in each group, including a control group, a group treated with aspirin at a dosage of 10 mg/kg, a group treated with the total saponins from Radix et Rhizoma Notoginseng at a dosage of 100 mg/kg and aspirin at a dosage of 10 mg/kg, and a group treated with the total saponins from Radix et Rhizoma Notoginseng at a dosage of 100 mg/kg. The rats in the groups treated with the total saponins from Radix et Rhizoma Notoginseng and aspirin were administrated intragastrically with the total saponins from Radix et Rhizoma Notoginseng and aspirin daily for 4 weeks, and the rats in the control group were administrated intragastrically with an equivalent volume of normal saline daily.
After 4 weeks of administration, the duodenum was collected from rats in each group of rats and fixed in 2.5% glutaraldehyde buffer for 2 h, then washed with PH 7.4 buffer three times, and then soaked with 1% osmium tetroxide for 30 min, dehydrated with graded alcohol and acetone, and then embedded in epoxy resin 812. Ultra-thin slices were prepared, copper grids of 200 grid units were taken, the ultra-thin slices were again impregnated with uranyl acetate and lead citrate, and then analyzed under the electron microscope to observe changes in the ultrastructure of the duodenum in rats of each group.

[4] = test system: middle cerebral artery occlusion (MCAO/R) model rats; assay: Canine urea levels in serum, hippocampus and cerebral cortex by ELISA in MCAO/R rats
Method: Middle cerebral artery occlusion (MCAO) model was established by thread embolization method. The surgical procedure was carried out under strictly aseptic conditions mainly according to the following steps: The rats were anesthetized by intraperitoneal injection of ketamine (80 mg/kg) and xylazine (10 mg/kg). The common carotid artery (CCA), external carotid artery (ECA) and internal carotid artery (ICA) were fully exposed, the common carotid artery was clamped with a vascular clip, and the branches of the external carotid artery were electrocoagulated with a bipolar electrocoagulation forceps. The main trunk of the external carotid artery was freed and ligated at 3 to 4 mm from the bifurcation of the common carotid artery. The internal carotid artery was temporarily clamped with a vascular clip. Corneal scissors were used to make a small incision in the external carotid artery. A 4-0 monofilament nylon thread coated with methylpolysiloxane was inserted and was tied a loose knot at the small incision of the external carotid artery to block the blood reflux of the internal carotid artery. The clip was removed from the internal carotid artery, and the nylon thread was gently pushed into the internal carotid artery to reach the intracranial anterior cerebral artery to block an incision of the middle cerebral artery (MCA), with an insertion depth of about 18-22 mm. The clip was removed from the common carotid artery, and the subcutaneous tissue and skin were sutured layer by layer after disinfection, and 2 hours later the nylon thread was slowly withdrawn to perform reperfusion for 24 hours. The operation to the sham operated group is the same as the above except that nylon thread is not inserted. The rectum of all rats was maintained at a temperature of 37° C. throughout the experiment.
5 mL of blood was taken from the abdominal aorta of the rats (n=8), and centrifuged at 3000 rpm for 10 min to obtain a serum. Hippocampus and cerebral cortex were separated from the brain tissue, homogenized, and centrifuged at 3000 rpm for 10 min to obtain a supernatant. Serum MDA, SOD, CAT and GSH-Px levels were detected with kits available from Nanjing Jiancheng; levels of canine urea and inflammatory response indicators MCP-1, TNF-α, IL-1β, IL-4, IL-6 and IL-10 were detected with ELISA kits.

[5] = test system: middle cerebral artery occlusion (MCAO/R) model rats; assay: Neurological evaluation (Longa's five-grade score) in MCAO/R rats
[6] = test system: myocardial ischemia reperfusion injury model rats; assay: Myocardial infarction volume by TTC staining in myocardial ischemia-reperfusion injury rats; settings: x ± s
Method: 240 male SD rats were randomly divided into 8 groups, with 30 rats in each group, including a sham operated group, a myocardial ischemia reperfusion injury model group, a group treated with the total saponins from Radix et Rhizoma Notoginseng at a dosage of 50 mg/kg, a group treated with aspirin at a dosage of 10 mg/kg, a group treated with aspirin at a dosage 5 mg/kg, a group treated with the combination of the total saponins from Radix et Rhizoma Notoginseng at a dosage of 50 mg/kg and aspirin at a dosage of 5 mg/kg. […]
The rats were anesthetized by intraperitoneal injection of pentobarbital sodium at a dose of 40 mg/kg body weight, and were connected to a small animal ventilator through an oral cannula, with a respiratory rate of 70 breaths/min, a respiratory ratio of 1:1, and a tidal volume of 1 mL. Real time electrocardiograms of the rats were recorded on a multi-lead physiological recorder available from AD Instruments. […]
Myocardial infarction volumes were evaluated by triphenyl tetrazolium chloride (TTC) staining. […] Myocardial infarction volumes were evaluated and calculated using Image-Pro plus 5.1 software

rat gastric mucosa = assay: HE staining to detect pathological changes of gastric mucosa; settings: aspirin 10 mg/kg intragastrically daily for 4 weeks; rats
Method: as §1
After 4 weeks of administration, gastric tissues were taken from rats in each group and fixed with 4% formaldehyde solution, routinely embedded in paraffin and cut into slices, and stained with HE to observe the degree of inflammatory lesions in the tissues.

[7] = test system: myocardial ischemia reperfusion injury model rats; assay: Three myocardial enzymes (AST, LDH, CK) in myocardial ischemia-reperfusion injury rats
Method: Rats in the groups treated with the total saponins from Radix et Rhizoma Notoginseng and/or aspirin were administrated intragastrically with the total saponins from Radix et Rhizoma Notoginseng and/or aspirin for a week, and rats in the sham operated group and model group were administrated intragastrically with an equivalent volume of distilled water. […] Real time electrocardiograms of the rats were recorded on a multi-lead physiological recorder available from AD Instruments. Thoracotomy was performed on the rats. An incision of 2 to 3 cm was made at a place between the 3rd and 4th ribs and about 0.5 cm from the left side of the sternum, a chest expander was used to open the ribs, and the pericardium was cut when exhaling to expose the heart. Myocardial ischemia was established by ligating the left coronary artery. […] After being stabilized for 5 minutes, the silk thread was passed through a disposable intravenous infusion hose with a length of about 3.5 cm. After the silk thread was pulled out, the silk thread was gently lifted, and the hose was pushed down and was fixed with a hemostatic forceps. […] The ligation was considered successful if: the ST segment was elevated, and the color of local myocardial tissue changed from red to gray; and after 30 minutes of reperfusion, the ST segment fell by more than 50%, and the color of myocardial tissue changed from gray to red. After the reperfusion was completed, blood was taken from the abdominal aorta and analyzed on an automatic biochemical analyzer to detect the levels of three myocardial enzymes (AST, LDH, CK) in plasma.

[8] = aspirin 5 mg/kg intragastrically for a week
[9] = aspirin 10 mg/kg intragastrically for a week
[10] = aspirin 5 mg/kg intragastrically for a week before MCAO
[11] = aspirin 10 mg/kg intragastrically for a week before MCAO

Structure (SMILES): CC(=O)Oc1ccccc1C(=O)O [aspirin]
- Maximum platelet aggregation rate (%) [1, 8]: 56.80%
- Maximum platelet aggregation rate (%) [1, 9]: 62.63%
- Volume of cerebral infarction [2, 10]: 16.08
- Volume of cerebral infarction [2, 11]: 13.96
- IL-1β ([3]; aspirin 5 mg/kg): 168.58 pg/mL
- IL-4 ([3]; aspirin 5 mg/kg): 36.57 pg/mL
- IL-6 ([3]; aspirin 5 mg/kg): 47.12 pg/mL
- IL-1β ([3]; aspirin 10 mg/kg): 189.69 pg/mL
- IL-4 ([3]; aspirin 10 mg/kg): 35.45 pg/mL
- IL-6 ([3]; aspirin 10 mg/kg): 47.15 pg/mL
- microvilli on the duodenal surface (electron microscope) compared with the control group (rat duodenal microvilli): the microvilli on the duodenal surface decreased
- Canine urea levels in cerebral cortex tissue ([4]; aspirin 5 mg/kg): 8.95 µg/L
- Canine urea levels in hippocampus ([4]; aspirin 5 mg/kg): 2.11 µg/L
- Canine urea levels in serum ([4]; aspirin 5 mg/kg): 18.00 µg/L
- Canine urea levels in cerebral cortex tissue ([4]; aspirin 10 mg/kg): 8.12 µg/L
- Canine urea levels in hippocampus ([4]; aspirin 10 mg/kg): 2.01 µg/L
- Canine urea levels in serum ([4]; aspirin 10 mg/kg): 17.25 µg/L
- Score (neurological deficit, Longa) [5, 10]: 1.83
- Score (neurological deficit, Longa) [5, 11]: 1.08
- Myocardial infarction volume (%) [6, 8]: 9.88%
- Myocardial infarction volume (%) [6, 9]: 8.75%
- gastric mucosa pathology (HE staining) compared with the control group (rat gastric mucosa): gastric mucosal epithelial cells were necrotic and inflammatory cells infiltrated
- AST(U/L) [7, 8]: 312.48 U/L
- CK(U/L) [7, 8]: 1823.49 U/L
- LDH(U/L) [7, 8]: 1105.54 U/L
- AST(U/L) [7, 9]: 204.32 U/L
- CK(U/L) [7, 9]: 1222.54 U/L
- LDH(U/L) [7, 9]: 811.85 U/L
